Test results from patent US8629137B2, “CGRP antagonists” (Boehringer Ingelheim International GmbH, priority 2007, dated 2014).

Target: T1, human CGRP receptor (Homo sapiens, UniProt O60894+Q16602)
T1 construct: SK-N-MC cells are cultivated in “Dulbecco's modified Eagle medium”; endogenous in cells; host or cells: SK-N-MC cells (membrane homogenate)
Experiment: Binding studies with SK-N-MC cells (expressing the human CGRP receptor)
Details: SK-N-MC cell membranes, displacement of 125I-iodotyrosyl-CGRP
Protocol: A. Binding Studies with SK-N-MC Cells (Expressing the Human CGRP Receptor)
SK-N-MC cells are cultivated in “Dulbecco's modified Eagle medium”. The medium is removed from confluent cultures. The cells are washed twice with PBS buffer (Gibco 041-04190 M), detached by the addition of PBS buffer mixed with 0.02% EDTA, and isolated by centrifuging. After resuspension in 20 ml of “Balanced Salts Solution” [BSS (in mM): NaCl 120, KCl 5.4, NaHCO3 16.2, MgSO4 0.8, NaHPO4 1.0, CaCl2 1.8, D-glucose 5.5, HEPES 30, pH 7.40] the cells are centrifuged twice at 100×g and resuspended in BSS. After the number of cells has been determined, the cells are homogenised using an Ultra-Turrax and centrifuged for 10 minutes at 3000×g. The supernatant is discarded and the pellet is recentrifuged in Tris buffer (10 mM Tris, 50 mM NaCl, 5 mM MgCl2, 1 mM EDTA, pH 7.40) enriched with 1% bovine serum albumin and 0.1% bacitracin, and resuspended (1 ml/1000000 cells). The homogenised product is frozen at −80° C. The membrane preparations are stable for more than 6 weeks under these conditions.
After thawing, the homogenised product is diluted 1:10 with assay buffer (50 mM Tris, 150 mM NaCl, 5 mM MgCl2, 1 mM EDTA, pH 7.40) and homogenised for 30 seconds with an Ultra-Turrax. 230 μl of the homogenised product are incubated for 180 minutes at ambient temperature with 50 pM ^125I-iodotyrosyl-Calcitonin-Gene-Related Peptide (Amersham) and increasing concentrations of the test substances in a total volume of 250 μl. The incubation is ended by rapid filtration through GF/B glass fibre filters treated with polyethyleneimine (0.1%) using a cell harvester. The protein-bound radioactivity is measured using a gamma counter. Non-specific binding is defined as the bound radioactivity after the presence of 1 μM human CGRP-alpha during incubation.
The concentration binding curves are analysed using computer-aided non-linear curve fitting.

T1 sequence (Q16602 23-461): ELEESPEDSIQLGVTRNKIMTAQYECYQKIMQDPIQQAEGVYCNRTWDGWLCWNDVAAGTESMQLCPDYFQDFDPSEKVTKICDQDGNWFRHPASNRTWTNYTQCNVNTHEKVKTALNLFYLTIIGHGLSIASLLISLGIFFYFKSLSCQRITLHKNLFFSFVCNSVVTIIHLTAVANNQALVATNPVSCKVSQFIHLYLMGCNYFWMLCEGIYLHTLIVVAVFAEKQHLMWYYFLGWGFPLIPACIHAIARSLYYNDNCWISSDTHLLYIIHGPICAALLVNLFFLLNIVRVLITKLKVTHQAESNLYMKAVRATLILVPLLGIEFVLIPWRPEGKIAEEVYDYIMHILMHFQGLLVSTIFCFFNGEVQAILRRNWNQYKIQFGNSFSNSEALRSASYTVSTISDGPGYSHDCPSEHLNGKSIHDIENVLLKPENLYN
T1 sequence (O60894 27-148): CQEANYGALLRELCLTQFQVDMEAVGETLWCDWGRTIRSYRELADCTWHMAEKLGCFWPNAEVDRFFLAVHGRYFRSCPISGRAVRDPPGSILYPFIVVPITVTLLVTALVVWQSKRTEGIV

| Ki [nM] | Structure (SMILES) |
| --- | --- |
| 0.4 | Cc1cc(C(=O)c2cc(N3CCC(n4c(=O)[nH]c5ncccc54)CC3)ncn2)cc2oc(=O)[nH]c12 [(1)] |
| 4 | Cc1cc(C(=O)c2cc(N3CCC(n4nc(-c5ccccc5)[nH]c4=O)CC3)ncn2)cc2oc(=O)[nH]c12 [(3)] |
| 1 | Cc1cc(C(=O)c2cc(N3CCC(n4c(=O)[nH]c5c6ccccc6ncc54)CC3)ncn2)cc2oc(=O)[nH]c12 [(4)] |
